Measured values reported in patent US6335337B1, “Substituted piperazinones and their therapeutic uses” (Laboratoire L. Lafon, priority 1998, dated 2002).
Structures can show the parent of a compound that is named as a salt.

Tests used:
Guinea Pig Platelets = test: In vitro inhibition of collagen-induced platelet aggregation, guinea pig platelet-rich plasma; format: cell-based; settings: guinea pig PRP, collagen 1 μg/ml, 3 minutes of contact at 37° C.
Protocol: A study of the inhibitory activity of the compounds of formula (I) on platelet aggregation was carried out in vitro, i.e. by direct contact of solutions of variable concentrations of the compounds with platelets freshly separated from a sample of total blood, taken under standardized conditions, from laboratory animals (guinea pigs) and from healthy human subjects who have not received any substances or drugs that might interfere with blood clotting. The anti-platelet-aggregating activity was also studied ex vivo/vitro, i.e. after administration of the substances claimed to guinea pigs to measure the intensity and duration of the anti-aggregating action induced by the fraction of the test product absorbed and circulating in the blood.
Blood is taken by intracardiac puncture from male Dunkin-Hartley guinea pigs (weighing about 330 g), at a rate of 4.5 ml per 0.5 ml of trisodium citrate (concentration of the aqueous solution: 1.55%;) in order to prevent all trace of clotting. The platelet-rich plasma (PRP) is obtained by centrifuging the tubes of total blood for 15 minutes at 150 g.
The PRPs are collected as “pools”. The platelets contained in these pools are counted using a Coulter ZM haematology automatic device: if necessary, a dilution is carried out in order for the platelet concentration in the plasma to be between 200000 and 400000 platelets/mm^3. Simultaneously, other samples of these pools serve to prepare the platelet-poor plasma (PPP) by centrifugation at 1500 g for 15 minutes.
The kinetic study of the platelet aggregation is carried out by adding a collagen solution (1 μg/ml) to a volume of PRP, using a Chrono-log Corporation aggregometer (490-D1, or 560 VS) which uses an optical detection of the appearance of the thrombus.
The determination of the 50%; inhibitory concentration (IC50) is carried out by adding a given volume of solvent (control reference) and increasing concentrations: 1.5×10^−8 M, 7×10^−8 M, 1.5×10^−7 M, 3×10^−7 M, 7×10^−7 M, 1.5×10^−6 M and […], of the compounds to samples of the pools of PRP. The measurements of the aggregation inhibition are carried out after 3 minutes of contact at 37° C. with agitation.

Human Platelets = test: In vitro inhibition of collagen-induced platelet aggregation, human platelet-rich plasma; format: cell-based; settings: 0.05 h, human PRP, collagen 5 μg/ml, 3 minutes of contact at 37° C., read-out: IC50(M) in vitro Man
Protocol: A study of the inhibitory activity of the compounds of formula (I) on platelet aggregation was carried out in vitro, i.e. by direct contact of solutions of variable concentrations of the compounds with platelets freshly separated from a sample of total blood, taken under standardized conditions, from laboratory animals (guinea pigs) and from healthy human subjects who have not received any substances or drugs that might interfere with blood clotting. The anti-platelet-aggregating activity was also studied ex vivo/vitro, i.e. after administration of the substances claimed to guinea pigs to measure the intensity and duration of the anti-aggregating action induced by the fraction of the test product absorbed and circulating in the blood. Venous blood is taken from a group of ten healthy human subjects of the same age, by puncture into a vein of the fold of the elbow and is collected in a glass tube containing aqueous 0.129 M sodium citrate solution (1 volume of citrate solution per 9 volumes of blood). Each tube is then centrifuged a first time at 20° C. and 100 g for 15 minutes in order to obtain the platelet-rich plasma (PRP); after removing this PRP, the tube is again centrifuged at 2000 g for 15 minutes in order this time to remove the platelet-poor plasma (PPP). For each identified sample of PRP, the platelets are counted using a Coulter ZM counter. Each sample is then used to study the variation in inhibition of the platelet aggregation triggered by the addition of a Chromo-par-Reagent collagen glucose solution from Coultronics (used at a concentration of 5 μg/ml) as a function of the addition of increasing concentrations of each compound in a range covering the interval 10^-8 M→10^-5 M, (example of concentrations: 10^-8 […]). Beforehand, for each compound, an aqueous 10^-3 M solution is prepared. A control test intended to check the possible effect of the solvents (reference value) on the platelet aggregation is introduced into each measurement series, and the aggregation is measured after 3 minutes of contact at 37° C. with agitation. From the percentages of inhibition of the platelet aggregation measured for each concentration of each compound, the 50%; inhibitory concentration (IC50) is calculated.

[1] = Cavia porcellus, Platelet, 0.05 h

Compound | IC50 (Guinea Pig Platelets; [1]) [nM] | IC50 (Human Platelets) [M] | IC50 (Guinea Pig Platelets) [nM]
CCOC(=O)[C@H](CNC(=O)CN1CCN(c2ccc(C(=N)N)cc2)CC1=O)NS(=O)(=O)c1ccccc1 [Example 17, ethyl (2S)-3-{[2-(4-{4-[amino(imino)methyl]phenyl}-2-oxopiperazino)acetyl]amino}-2-[(phenylsulphonyl)amino]propanoate acetate] | 110 | 1e-05 | 
CCOC(=O)[C@H](CNC(=O)CN1CCN(c2ccc(C(=N)N)cc2)CC1=O)NS(=O)(=O)c1cccnc1 [Example 18, Ethyl (2S)-3-{[2-(4-{4-[amino(imino)methyl]phenyl}-2-oxopiperazino)acetyl]amino}-2-[(3-pyridylsulphonyl)amino]propanoate diacetate] | 910 | 3.2e-05 | 
CCOC(=O)[C@H](CNC(=O)CN1CCN(c2ccc(C(=N)N)cc2)CC1=O)NS(=O)(=O)c1cccc2c1NCCC2 [Example 19, Ethyl (2S)-3-{[2-(4-{4-[amino(imino)methyl]phenyl}-2-oxopiperazino)acetyl]amino}-2-[(1,2,3,4-tetrahydro-8-quinolinylsulphonyl)amino]propanoate acetate] | 250 | 8.2e-06 | 
CCOC(=O)[C@H](CNC(=O)CN1CCN(c2ccc(C(=N)N)cc2)CC1=O)NS(=O)(=O)c1ccc(C)cc1 [Example 23, Ethyl (2S)-3-{[2-(4-{4-[amino(imino)methyl]phenyl}-2-oxopiperazino)acetyl]amino}-2-{[4-toluenesulphonyl]amino}propanoate acetate] | 420 | 1.8e-05 | 
CCOC(=O)[C@H](CNC(=O)CN1CCN(c2ccc(C(=N)N)cc2)CC1=O)NS(=O)(=O)c1ccc(Cl)cc1 [Example 24, Ethyl (2S)-3-{[2-(4-{4-[amino(imino)methyl]phenyl}-2-oxopiperazino)acetyl]amino}-2-{[(4-chlorophenyl)sulphonyl]amino}propanoate acetate] | 320 | 9.3e-06 | 
CCOC(=O)[C@H](CNC(=O)CN1CCN(c2ccc(C(=N)N)cc2)CC1=O)NS(=O)(=O)c1ccc2ccccc2c1 [Example 25, Ethyl (2S)-3-{[2-(4-{4-[amino(imino)methyl]phenyl}-2-oxopiperazino)acetyl]amino}-2-[(2-naphthylsulphonyl)amino]propanoate acetate] | 200 | 9.5e-05 | 
CCOC(=O)[C@H](CNC(=O)CN1CCN(c2ccc(C(=N)N)cc2)CC1=O)NC(=O)OCC(C)C [Example 26, Ethyl (2S)-3-{[2-(4-{4-[amino(imino)methyl]phenyl}-2-oxopiperazino)acetyl]amino}-2-[(isobutoxycarbonyl)amino]propanoate acetate] | 400 | 5.7e-06 | 
CCOC(=O)[C@H](CNC(=O)CN1CCN(c2ccc(C(=N)N)cc2)C(=O)C1)NS(=O)(=O)c1ccccc1 [Example 29, Ethyl (2S)-3-{[2-(4-{4-[amino(imino)methyl]phenyl}-3-oxopiperazino)acetyl]amino}-2-[(phenylsulphonyl)amino]propanoate acetate] | 1800 | 5.3e-06 | 
N=C(N)c1ccc(N2CCN(CC(=O)NC[C@H](NS(=O)(=O)c3ccccc3)C(=O)O)C(=O)C2)cc1 [Example 30, (2S)-3-{[2-(4-{4-[amino(imino)methyl]phenyl}-2-oxopiperazino)acetyl]amino}-2-[(phenylsulphonyl)amino]propanoic acid hydrochloride] | 94 | 1.2e-07 | 
Cc1ccc(S(=O)(=O)N[C@@H](CNC(=O)CN2CCN(c3ccc(C(=N)N)cc3)CC2=O)C(=O)O)cc1 [Example 31, (2S)-3-{[2-(4-{4-[Amino(imino)methyl]phenyl}-2-oxopiperazino)acetyl]amino}-2-{[4-toluenesulphonyl]amino}propanoic acid hydrochloride] | 310 | 3.4e-07 | 
CCOC(=O)[C@H](CNC(=O)CN1CCN(c2ccc(C(=N)N3CCOCC3)cc2)CC1=O)NS(=O)(=O)c1ccc(C)cc1 [Example 40] |  |  | 1000
CCOC(=O)[C@H](CNC(=O)CN1CCN(c2ccc(C(=N)N3CCCCC3)cc2)CC1=O)NS(=O)(=O)c1ccc(C)cc1 [Example 41, Ethyl (2S)-3-{[2-(4-{4-[imino(piperidino)methyl]phenyl}-2-oxopiperazino)acetyl]amino}-2-{[4-toluenesulphonyl]amino}propanoate] | 1600 |  | 
